Measurements taken from patent publication US5147876A, “2,6-di,2,4,6-, 2,5,6-tri and 2,4,5,6-tetra-substituted pyrimidines, their pharmaceutically acceptable salts, pharmaceutical compositions containing same and their use in the treatment of neurological diseases” (Mitsui Petrochemical Industries, Ltd., priority 1988, dated 1992).

Legend:
[1] = tested on: neuro-2a (mouse neuroblastoma cells); assay: Action on neuro-2a: proportion of cells containing outgrown neurites; assay type: cell-based; conditions: mean ± S.D.
Protocol: (§1) The effects of the compounds of this invention on neuroblastoma cells were examined by the following method.
(§2) Mouse neuro 2a cells in the logarithmic growth period in the Dulbecco's modified Eagle's medium DMEM, containing 100 units/ml of penicillin G sodium and 100 micrograms/ml of streptomycin sulfate]containing 10 % of FCS were seeded in a 48-well plate so that the number of cells was 1,000 cells/well, and cultured for one day in 0.25 ml of the culture fluid in each well in an incubator containing 5 % of carbon dioxide gas in air at 37° C. Then, a 4 % aqueous glutaraldehyde solution in the same amount as a medium (0.25 ml) was added, and the culture fluid was left to stand at room temperature for 2 hours to fix the cells. After washing with water, a 0.05 % aqueous solution of methylene blue was added to stain the cells Under a microscope, the number of cells containing outgrown neurites (cells having at least one neurite with a length of at least two times as large as the long diameter of the cell) was counted visually, and the proportion of these cells in the entire cells was calculated. The well was observed over 5 or more visual fields (at least 2 % of the entire surface area of the well) continuous to the left and right from a mark put at the center of the well, and more than 200 cells was counted. One drug compound was used in 6 different concentrations at most, and three runs were conducted for each concentrations.

[2] = tested on: NS-20Y (mouse neuroblastoma cells); assay: Activity on NS-20Y cells: appearance of neurites; assay type: cell-based
Protocol: as §1, §2
Mouse neuroblastoma cells NS-20Y were similarly cultured in a dish coated with polyornithine, and the effects of the compounds were examined.

Question: How did the “Number of cells having neurites with a length at least two times the diameter of each cell/total number of cells” value (“Number … of each cell/total number of cells” for short) ([1]; 0.03 mM) turn out when `Cc1ccc(S(=O)(=O)O)cc1.Cc1ccccc1C(=O)N(C)c1ccnc(N2CCC(c3ccccc3)CC2)n1` [Compound 171-7] was run?
Answer: 8.5 ± 1.0%

Question: What about the “Number … of each cell/total number of cells” value ([1]; 0.1 mM) of the same compound?
Answer: 6.7 ± 3.1%

Question: And the “Number of cells in which neurites appeared/total number of cells” value ([2]; 24 hours, 0.1 mM)?
Answer: 4/50

Question: And the “Number of cells in which neurites appeared/total number of cells” value ([2]; 48 hours, 0.1 mM)?
Answer: 2/50

Question: How did the “Number … of each cell/total number of cells” value ([1]; 0.01 mM) turn out when `CN(C)CCN(C(=O)c1ccccc1)c1ccnc(N2CCC(c3ccccc3)CC2)n1` [Compound 200] was run?
Answer: 4.2 ± 1.6%

Question: And the “Number … of each cell/total number of cells” value ([1]; 0.03 mM)?
Answer: 7.6 ± 1.6%

Question: What about the “Number of cells in which neurites appeared/total number of cells” value ([2]; 24 hours, 0.02 mM) of the same compound?
Answer: 4/50

Question: And the “Number of cells in which neurites appeared/total number of cells” value ([2]; 48 hours, 0.02 mM)?
Answer: 2/50

Question: Which results are given for `CN(C(=O)C(C)(C)C)c1ccnc(N2CCC(c3ccccc3)CC2)n1` [Compound 224]?
Answer: Number of cells having neurites with a length at least two times the diameter of each cell/total number of cells ([1]; 0.03 mM): 4.6 ± 1.7%; Number of cells having neurites with a length at least two times the diameter of each cell/total number of cells ([1]; 0.1 mM): 5.5 ± 1.5%; Number of cells in which neurites appeared/total number of cells ([2]; 24 hours, 0.02 mM): 6/50; Number of cells in which neurites appeared/total number of cells ([2]; 48 hours, 0.02 mM): 3/50

Question: Which results are given for `CN(C(=O)c1ccc(F)cc1)c1ccnc(N2CCC(c3ccccc3)CC2)n1` [Compound 242]?
Answer: Number of cells having neurites with a length at least two times the diameter of each cell/total number of cells ([1]; 0.1 mM): 17.0 ± 2.3%; Number of cells having neurites with a length at least two times the diameter of each cell/total number of cells ([1]; 0.3 mM): 12.8 ± 6.3%; Number of cells having neurites with a length at least two times the diameter of each cell/total number of cells ([1]; 1 mM): 9.4 ± 3.9%; Number of cells in which neurites appeared/total number of cells ([2]; 24 hours, 0.2 mM): 4/50; Number of cells in which neurites appeared/total number of cells ([2]; 24 hours, 0.4 mM): 6/50; Number of cells in which neurites appeared/total number of cells ([2]; 48 hours, 0.1 mM): 6/50; Number of cells in which neurites appeared/total number of cells ([2]; 48 hours, 0.2 mM): 11/50

Question: What does the source list for `CN(C(=O)c1ccccc1)c1ccnc(N2CCOCC2)n1` [Compound 336]?
Answer: Number of cells having neurites with a length at least two times the diameter of each cell/total number of cells ([1]; 0.1 mM): 5.8 ± 2.4%; Number of cells having neurites with a length at least two times the diameter of each cell/total number of cells ([1]; 0.3 mM): 6.3 ± 2.8%; Number of cells in which neurites appeared/total number of cells ([2]; 24 hours, 0.2 mM): 3/54; Number of cells in which neurites appeared/total number of cells ([2]; 48 hours, 0.5 mM): 2/50

Question: For `CN(C(=O)c1ccccc1)c1ccnc(N2CCNCC2)n1` [Compound 344], which “Number … of each cell/total number of cells” value ([1]; 0.01 mM) is on record?
Answer: 3.6 ± 0.7%

Question: And the “Number … of each cell/total number of cells” value ([1]; 0.03 mM)?
Answer: 4.0 ± 1.7%

Question: And the “Number … of each cell/total number of cells” value ([1]; 0.1 mM)?
Answer: 4.7 ± 1.8%

Question: And the “Number … of each cell/total number of cells” value ([1]; 0.3 mM)?
Answer: 4.5 ± 2.1%

Question: And the “Number of cells in which neurites appeared/total number of cells” value ([2]; 24 hours, 0.2 mM)?
Answer: 3/51

Question: What about the “Number of cells in which neurites appeared/total number of cells” value ([2]; 48 hours, 0.5 mM) of the same compound?
Answer: 2/49

Question: What does the source list for `CC(=O)N(C)c1cc(C)nc(N2CCCCC2)n1` [Compound 384]?
Answer: Number of cells having neurites with a length at least two times the diameter of each cell/total number of cells ([1]; 0.3 mM): 10.4 ± 2.5%; Number of cells having neurites with a length at least two times the diameter of each cell/total number of cells ([1]; 1 mM): 10.8 ± 7.2%; Number of cells in which neurites appeared/total number of cells ([2]; 24 hours, 0.4 mM): 8/50; Number of cells in which neurites appeared/total number of cells ([2]; 48 hours, 0.4 mM): 3/50

Question: What does the source list for `CC(=O)N(C)c1nc(N2CCC(c3ccccc3)CC2)ncc1C` [Compound 416]?
Answer: Number of cells having neurites with a length at least two times the diameter of each cell/total number of cells ([1]; 0.1 mM): 13.2 ± 1.3%; Number of cells having neurites with a length at least two times the diameter of each cell/total number of cells ([1]; 0.3 mM): 10.8 ± 1.5%; Number of cells in which neurites appeared/total number of cells ([2]; 24 hours, 0.1 mM): 7/50; Number of cells in which neurites appeared/total number of cells ([2]; 24 hours, 0.4 mM): 11/50; Number of cells in which neurites appeared/total number of cells ([2]; 48 hours, 0.1 mM): 2/50

Question: Which “Number … of each cell/total number of cells” value ([1]; 0.1 mM) does the source give for `CN(C(=O)c1ccccc1)c1nc(N2CCC(c3ccccc3)CC2)ncc1F` [Compound 432] here?
Answer: 2.9 ± 1.0%

Question: And the “Number … of each cell/total number of cells” value ([1]; 0.3 mM)?
Answer: 3.6 ± 1.7%

Question: And the “Number of cells in which neurites appeared/total number of cells” value ([2]; 24 hours, 0.02 mM)?
Answer: 7/50

Question: And the “Number of cells in which neurites appeared/total number of cells” value ([2]; 24 hours, 0.4 mM)?
Answer: 7/50

Question: And the “Number of cells in which neurites appeared/total number of cells” value ([2]; 48 hours, 0.4 mM)?
Answer: 4/50

Question: For `CCOC(=O)c1cnc(N2CCCCC2)nc1CNC` [Compound 812], which “Number … of each cell/total number of cells” value ([1]; 0.1 mM) is on record?
Answer: 3.5 ± 0.5%

Question: What about the “Number … of each cell/total number of cells” value ([1]; 0.3 mM) of the same compound?
Answer: 3.4 ± 0.5%

Question: And the “Number of cells in which neurites appeared/total number of cells” value ([2]; 24 hours, 0.5 mM)?
Answer: 9/50

Question: And the “Number of cells in which neurites appeared/total number of cells” value ([2]; 24 hours, 1.0 mM)?
Answer: 11/50

Question: And the “Number of cells in which neurites appeared/total number of cells” value ([2]; 48 hours, 0.3 mM)?
Answer: 9/50

Question: And the “Number of cells in which neurites appeared/total number of cells” value ([2]; 48 hours, 0.5 mM)?
Answer: 5/51

Question: How did the “Number … of each cell/total number of cells” value ([1]; 1 mM) turn out when `COCc1nc(N2CCCCC2)ncc1C(=O)OC` [Compound 820, 2-piperidino-4-methoxymethyl-5-methoxycarbonylpyrimidine] was run?
Answer: 8.4 ± 1.1%

Question: And the “Number … of each cell/total number of cells” value ([1]; 3 mM)?
Answer: 8.8 ± 2.3%

Question: What about the “Number of cells in which neurites appeared/total number of cells” value ([2]; 24 hours, 0.1 mM) of the same compound?
Answer: 4/50

Question: And the “Number of cells in which neurites appeared/total number of cells” value ([2]; 24 hours, 0.5 mM)?
Answer: 5/53

Question: And the “Number of cells in which neurites appeared/total number of cells” value ([2]; 48 hours, 0.1 mM)?
Answer: 4/50

Question: What about the “Number of cells in which neurites appeared/total number of cells” value ([2]; 48 hours, 0.25 mM) of the same compound?
Answer: 5/55
